Experimental data as given in ChEMBL document CHEMBL3988442, “University of Dundee, Small-Polar-MMV Screening Library” (2021).

Tests used:
[1] = microbe, parasite or virus in culture; conditions: Mycobacterium tuberculosis, 96 h, read-out: pIC50 (converted)
[2] = microbe, parasite or virus in culture; conditions: Mycobacterium tuberculosis, 72 h, read-out: pIC50 (converted)

Row | SMILES | IC50 [1] | IC50 [2]
1 | CCOCC(O)CSc1nccn1-c1cccc(F)c1 (configuration not stated) | 290 µM | 189 µM
2 | NC(=O)C1CCN(C(=O)CCc2ccc(Cl)cc2Cl)C1 (configuration not stated) | 284 µM | 157 µM
3 | COc1ccc(CN2C[C@H]3CN(C(=O)c4ccno4)CCN3C2=O)cc1 | > 50.1 µM | > 50.1 µM
4 | Cc1onc(N)c1S(=O)(=O)NCc1ccccc1Cl | > 501 µM | 156 µM
5 | Cc1ccc(C(=O)N2CCN(c3nccs3)CC2)o1 | 183 µM | 157 µM
6 | CCOc1ccc(C(=O)Nc2ccnc(C)c2)cn1 | > 501 µM | 279 µM
7 | NCCNS(=O)(=O)c1cccc(I)c1 | > 501 µM | 326 µM
8 | COCC(=O)N1CCC2(CC1)OCCO2 | > 501 µM | > 501 µM
9 | CC(=O)NCc1noc2c1CN(Cc1ccsc1)CC2 | > 50.1 µM | > 50.1 µM
10 | CC(C)NC(=O)Nc1cccc(S(=O)(=O)C(F)F)c1 | 219 µM | 264 µM
11 | O=C(CCN1CCCC1)N1CCc2ccccc21 | > 501 µM | 391 µM
12 | COCCOCc1cccc(NC(=O)NC(C)C)c1 | > 501 µM | > 501 µM
13 | COC(=O)c1ccc(N2CCC(N(C)c3ccccc3)CC2)nn1 | 12.3 µM | 37 µM
14 | CCNC(=O)C1CCCN(c2ccncc2Cl)C1 (configuration not stated) | 281 µM | 129 µM
15 | CSC1=Nc2c(cnn2-c2cccc(Cl)c2)C2=NCCCN12 | 28.3 µM | 5.78 µM
16 | Cc1ccncc1NC1CS(=O)(=O)c2ccccc21 (configuration not stated) | 43.2 µM | 27.1 µM
17 | Cc1nnc(SCCC(=O)N(C)Cc2ccc(F)cc2F)[nH]1 | > 50.1 µM | > 50.1 µM
18 | CC(=O)Nc1nc(COc2ccc(C)cn2)cs1 | 244 µM | 237 µM
19 | CN(C)c1nccc(CNc2ccc(C#N)nc2)n1 | 249 µM | 128 µM
20 | CC(C)CC(C)Oc1cc(CN)ccn1 (configuration not stated) | > 501 µM | > 501 µM
21 | CCOc1cccc(CN(C)S(=O)(=O)c2cccs2)n1 | 191 µM | 144 µM
22 | Nc1nccnc1C(=O)NCc1ccccc1 | > 501 µM | 294 µM

Row | SMILES | IC50 [1] | IC50 [2]
23 | Cc1ccc(C(=O)N2CC(Oc3ccccc3C)C2)s1 | 10.7 µM | 8.82 µM
24 | FC1(F)CCNCC12CCN(c1ncccn1)C2 (configuration not stated) | > 50.1 µM | > 50.1 µM
25 | O=C(Cc1cccnc1)NCCNc1cccc(Br)c1 | > 501 µM | 143 µM
26 | O=C(NCCC(O)C(F)(F)F)c1c(O)cc(F)cc1F (configuration not stated) | 244 µM | 290 µM
27 | COCc1ccccc1CNC(=O)c1nc(C)ns1 | 145 µM | 488 µM
28 | CN(Cc1ccsc1)Cc1ccc(S(=O)(=O)N(C)C)o1 | 86.4 µM | > 501 µM
29 | CCS(=O)(=O)N(C)CCCNc1ccc(C)c(C#N)n1 | 84.2 µM | 106 µM
30 | CS(=O)(=O)Cc1ccccc1NCc1ccsc1 | > 501 µM | 220 µM
31 | NCc1coc(-c2cccs2)n1 | 298 µM | 144 µM
32 | Cc1noc(C(C)Nc2ccc3c(c2)CCC3)n1 (configuration not stated) | 3.32 µM | 5.68 µM
33 | COc1ccc(CN2C[C@H](O)[C@@H](N(C)C)C2)c(C)c1C | 349 µM | 105 µM
34 | CN(CCn1cnnc1)c1ccc2ccc(F)cc2n1 | 259 µM | 212 µM
35 | CN1CCC(N(C)CCC(=O)N2CCC(CCc3ccccc3)CC2)C1 (configuration not stated) | 35.3 µM | 41.5 µM
36 | CCNC(=O)c1cc(N2CCCC(C)CC2)ccn1 (configuration not stated) | 237 µM | 143 µM
37 | CN1N=C(C(=O)NCc2csc(Br)c2)CCC1=O | 51 µM | 147 µM
38 | C=C(C)COC(=O)c1ccc(-n2cncn2)cc1C | 279 µM | 182 µM
39 | CCC(CO)NCc1ccc(-c2ccc(Br)cc2)o1 (configuration not stated) | 27.5 µM | 44.3 µM
40 | COC[C@@H]1CN(C)C(=O)[C@@H]2CCN(Cc3ccco3)CC[C@H]12 | > 50.1 µM | > 50.1 µM
41 | Cc1cc(OC(F)F)c(C2NC(=O)CN2C)cc1C (configuration not stated) | > 501 µM | > 501 µM
42 | NC(c1cncc(Br)c1)C1CC1 (configuration not stated) | > 501 µM | > 501 µM
43 | OCCNC1CCCC1 | > 501 µM | > 501 µM
44 | COCCC(C)Nc1c[nH]nc1-c1ccccn1 (configuration not stated) | > 501 µM | 201 µM

Row | SMILES | IC50 [1] | IC50 [2]
45 | CN1CCN(C(=O)c2cc3ccccc3o2)CC1 | 203 µM | 207 µM
46 | O=C(Nc1cccc(Cl)c1)C1CCCN1 (configuration not stated) | > 501 µM | 147 µM
47 | CCNC(=O)CN(CC)S(=O)(=O)c1ccc(C)cc1 | > 501 µM | 295 µM
48 | FC(F)Oc1ccccc1CN1CCCC(c2nccn2CC2CC2)C1 (configuration not stated) | > 50.1 µM | > 50.1 µM
49 | O=C(Cn1cc(Br)cn1)Nc1ccc2c(c1)OCCO2 | 247 µM | 220 µM
50 | CCc1ccc(C(=O)NC(C)c2cccnc2)o1 (configuration not stated) | > 501 µM | > 501 µM
51 | Cc1ccc(F)c(C(=O)N[C@@H]2CNC[C@H]2O)c1Cl | > 501 µM | > 501 µM
52 | CCOCCN1CCn2c(C)nnc2C1 | > 50.1 µM | > 50.1 µM
53 | Cc1[nH]c(=O)[nH]c(=O)c1CN1CCCC(CCc2ccccc2F)C1 (configuration not stated) | > 50.1 µM | > 50.1 µM
54 | N#Cc1cnc2cc(F)cc(F)c2c1NC1CCN(CC(N)=O)CC1 | > 50.1 µM | > 50.1 µM
55 | O=c1c2sccc2nc2n1CCN(Cc1ccccc1C(F)(F)F)CC2 | > 50.1 µM | > 50.1 µM
56 | CC(=O)NCc1ccc(C(=O)NC2CCc3nc(C)cn3C2)o1 (configuration not stated) | > 50.1 µM | > 50.1 µM
57 | COc1ccc(NC(=O)COc2ccccc2F)cn1 | > 501 µM | 213 µM
58 | CCN1CCN(Cc2nc(-c3ccccc3)no2)CC1 | > 501 µM | > 501 µM
59 | Cc1cc(C)nc(N2CCCC(c3cccc(-n4ccnc4)n3)C2)n1 (configuration not stated) | 28.7 µM | 26.9 µM
60 | CCCNC(=O)CSCc1nc(-c2ccccc2)no1 | 437 µM | 239 µM
61 | CC(CN)c1nc(-c2ccccc2)no1 (configuration not stated) | 410 µM | 179 µM
62 | COc1ccc2c(c1)CN(C(=O)C1CCCOC1)CC2 (configuration not stated) | > 501 µM | > 501 µM
63 | O=C1CCCN1CCCNS(=O)(=O)c1ccc(Br)s1 | 6.97 µM | > 501 µM
64 | CN1CCN(S(=O)(=O)N2CCCC2)Cc2ccccc21 | 271 µM | 155 µM
65 | N#CC1(NC(=O)CCc2ccc(Cl)s2)CCOCC1 | > 501 µM | 236 µM
66 | CC(C)C[C@H](N)C(=O)N(C)c1ccccc1 | 225 µM | 242 µM

Row | SMILES | IC50 [1] | IC50 [2]
67 | CCC1c2ccsc2CCN1C(=O)c1ccc(CN)o1 (configuration not stated) | 370 µM | 167 µM
68 | NC(=O)CSc1nnc(-c2cc(Br)ccc2O)[nH]1 | 247 µM | 210 µM
69 | CCN(C)C(=O)Nc1ccc(C(=O)OC)c(F)c1 | > 501 µM | > 501 µM
70 | Cc1cnc(NC(=O)c2csc(NC3CCCC3)n2)s1 | > 50.1 µM | > 50.1 µM
71 | COc1ccc(C(=O)CCN(C)C)cc1 | 294 µM | 114 µM
72 | Cc1cccc(N2CCCC(N)C2)n1 (configuration not stated) | 150 µM | 119 µM
73 | Cc1ccc(C2CCCN2Cc2nc(-c3ccco3)no2)cc1 (configuration not stated) | 18.7 µM | 21.8 µM
74 | O=C(c1cc(Cl)c[nH]1)N1CCOC(c2cccs2)C1 (configuration not stated) | > 501 µM | 50.5 µM
75 | COC(=O)c1cnc(/C=C/c2ccc(C(=O)O)cc2)s1 | 27.3 µM | 26.6 µM
76 | CNc1cc(CN(C)Cc2ccccc2)ccn1 | 430 µM | 227 µM
77 | O=c1ccc(Br)cn1Cc1noc(C2CC2)n1 | 204 µM | 78.4 µM
78 | NC(=O)C(Sc1nnc[nH]1)c1ccc(Br)cc1 (configuration not stated) | > 501 µM | > 501 µM
79 | c1ccc2c(N3CCNCC3)cncc2c1 | 290 µM | 460 µM
80 | Cc1cc(CN2CCC(Oc3cccnc3)CC2)on1 | > 501 µM | > 501 µM
81 | NCC(O)c1ccc(Cl)c(F)c1 (configuration not stated) | > 501 µM | 252 µM
82 | O=C(NCC1CC1)N1CCN(Cc2ccc3c(c2)OCCO3)CC1 | 17.9 µM | 45.6 µM
83 | CN(C)C(=O)CN1CCOC(CCc2ccccc2)C1 (configuration not stated) | > 501 µM | > 501 µM
84 | CCc1ccc(C(=O)N2CCN(Cc3ccc(F)cc3)CC2)s1 | 28.4 µM | 19.9 µM
85 | O=C(NCC(O)c1ccc(F)cc1)Nc1cnns1 (configuration not stated) | > 501 µM | > 501 µM
86 | COc1c(C(=O)N2CCOCC2)sc2ccc(F)cc12 | 284 µM | 305 µM
87 | Cc1ccc2c(c1)nc(CN)n2C | 348 µM | 231 µM
88 | CC(C)(O)CSc1nnc(NCc2ccco2)s1 | 55.2 µM | 118 µM

Row | SMILES | IC50 [1] | IC50 [2]
89 | CC1CC(=O)NCCN1 (configuration not stated) | > 501 µM | > 501 µM
90 | CNc1nnc(-c2ccccc2)s1 | > 501 µM | > 501 µM
91 | CN(C)c1cc(CN)c2ccccc2n1 | 132 µM | 97.3 µM
92 | CCNC(=O)NCC(C)Oc1cccc(OC)c1 (configuration not stated) | 301 µM | 254 µM
93 | c1cc2c(cc1C1=NN=C(NC3CC3)SC1)OCCO2 | 160 µM | 158 µM
94 | N#Cc1cccc(C(=O)OCCCn2cccn2)c1 | > 501 µM | > 501 µM
95 | COc1cccc2c1CCC2N (configuration not stated) | > 501 µM | 223 µM
96 | CCOC(=O)CNC(=O)c1ccc2c(c1)OCCO2 | > 501 µM | > 501 µM
97 | CNC(=O)CN(C)C(=O)CCc1ccc(Br)cc1F | 166 µM | 108 µM
98 | Cc1csc(CNC(=O)c2ccco2)n1 | > 501 µM | > 501 µM
99 | Cc1nc(N(C)C/C=C/c2ccccc2)c2cnn(C)c2n1 | > 50.1 µM | > 50.1 µM
100 | Fc1ccc(C(NCc2nnc(-c3ccco3)o2)C2CCC2)cc1 (configuration not stated) | 4.62 µM | 0.884 µM
101 | Cn1cc(Cn2nc(-c3ccco3)oc2=O)cn1 | > 501 µM | 187 µM
102 | CN(C1(C#N)CCC1)S(=O)(=O)c1cccs1 | > 501 µM | 323 µM
103 | O=C(c1cc2c([nH]c1=O)CCC2)N1CCCC1c1ccccc1 (configuration not stated) | > 50.1 µM | > 50.1 µM
104 | Nc1cc(-c2ccc(I)cc2)nn1CCO | > 501 µM | > 501 µM
105 | CCOc1nn(CC)cc1-c1nnc(SCc2ccccn2)n1C | > 50.1 µM | 25.4 µM
106 | NCC(CO)Cc1cc(F)cc(Br)c1 (configuration not stated) | 264 µM | 305 µM
